Data published in patent publication EP0082648A2, “Cephalosporin derivatives” (IMPERIAL CHEMICAL INDUSTRIES PLC, priority 1981, dated 1983).
≈ marks a conversion by molar mass, not a printed value.

Key:
Salmonella dublin = assay: In vitro agar dilution MIC test, Jewell and Pearmain agar medium; format: cell-based; conditions: Salmonella enterica, Code A20, inoculum size ~10^5 CFU
From the text: (§1) The results set out in the following Table are illustrative of the biological activity of one of the preferred compounds of the present invention, that of Example 4. The following results are those obtained on a standard in vitro test system using Jewell and Pearmain agar medium. The antibacterial activity is described in terms of the minimum inhibitory concentration (MIC) determined by agar - dilution technique with an inoculum size of ~10^5 CFU.

Ps. aeruginosa = assay: as above; format: cell-based; conditions: Pseudomonas aeruginosa, Code A21, inoculum size ~10^5 CFU
From the text: as §1

Serratia marescens = assay: as above; format: cell-based; conditions: Code A16, inoculum size ~10^5 CFU
From the text: as §1

Staph. aureus = assay: as above; format: cell-based; conditions: Staphylococcus aureus, Code A6, inoculum size ~10^5 CFU
From the text: as §1

Ent. cloacae = assay: as above; format: cell-based; conditions: Enterobacter cloacae, Code A13, inoculum size ~10^5 CFU
From the text: as §1

Proteus mirabilis = assay: as above; format: cell-based; conditions: Code A18, inoculum size ~10^5 CFU
From the text: as §1

Strep. pyogenes = assay: as above; format: cell-based; conditions: Streptococcus pyogenes, Code A1, inoculum size ~10^5 CFU
From the text: as §1

K. aerogenes = assay: as above; format: cell-based; conditions: Klebsiella aerogenes, Code A10, inoculum size ~10^5 CFU
From the text: as §1

E. coli = assay: as above; format: cell-based; conditions: Escherichia coli, Code A8, inoculum size ~10^5 CFU
From the text: as §1

[1] = Toxicity observation after subcutaneous administration to mice; format: in vivo; conditions: dose four times the minimum effective dose which protected 50% of the mice against infection with Salmonella dublin
Experimental: Thus the compound 7-(4-[3-(3-cyano-2-methylisothioureido)propyl]imidazol-2-yl)amino-3-(1-methyl-lH-tetrazol-5-yl)thiomethylceph-3-em-4-carboxylic acid (Example 4) was administered subcutaneously to mice at a dose four times that of the minimum effective dose which protected 50% of the mice against infection with Salmonella dublin.

SMILES: CSC(=NC#N)NCCCc1c[nH]c(NC2C(=O)N3C(C(=O)O)=C(CSc4nnnn4C)CS[C@H]23)n1 (stereo partly shown) [Example 4, 7-(4-[3-(3-cyano-2-methylisothioureido)propyl]imidazol-2-yl)amino-3-(1-methyl-1H-tetrazol-5-yl)thiomethylceph-3-em-4-carboxylic acid]
- MIC (Salmonella dublin): 0.03 µg/mL (≈ 0.0546 µM)
- MIC (Ps. aeruginosa): > 128 µg/mL
- MIC (Serratia marescens): 4 µg/mL (≈ 7.28 µM)
- MIC (Staph. aureus): 16 µg/mL (≈ 29.1 µM)
- MIC (Ent. cloacae): 32 µg/mL (≈ 58.2 µM)
- MIC (Proteus mirabilis): 1 µg/mL (≈ 1.82 µM)
- MIC (Strep. pyogenes): 8 µg/mL (≈ 14.6 µM)
- MIC (K. aerogenes): 0.12 µg/mL (≈ 0.218 µM)
- MIC (E. coli): 0.06 µg/mL (≈ 0.109 µM)
- overt toxic symptoms or side effects [1]: No overt toxic symptoms or side effects attributable to the administered compound were noted
